Test system: normal human-derived epidermal keratinocytes
Assay: in-vitro thymidine dimer assay after UVB, epidermis skin model
Assay type: cell-based
Details: 7 days treatment, UVB 300 mJ/cm^2; Trolox 50 ug/ml, Aristotelia chilensis 5%, Ugni molinae 4%
Description: Leaf extracts Aristotelia chilensis and Ugni molinae were evaluated to determine their ability to prevent undesirable thymidine dimer formation upon exposure to UVB radiation. When skin is exposed to UVB radiation, thymidine bases in the DNA can absorb the UVB radiation to form thymidine dimers (also known as thymine dimers) in DNA, complicating the cell's efforts to replicate DNA and to properly function. In this experiment, an in-vitro thymidine dimer assay was performed using a skin model consisting of normal human-derived epidermal keratinocytes cultured to form a multilayered model of the human epidermis. […] The primary antibody was then detected with a secondary antibody conjugated to a fluorescent dye. The membrane was then scanned with an excitation laser and emission filter combo specific to the fluorescent dye, so that the fluorescence intensity of each sample was proportional to the amount of thymidine dimers present in the sample and a lower fluorescence intensity advantageously indicates lower levels of cellular damage from UVB radiation. The results of the thymidine dimer assay are found in Table 1, below, expressed as mean Relative Fluorescence Units (RFU)±standard deviation.

Cc1c(C)c2c(c(C)c1O)CCC(C)(C(=O)O)O2 (stereo not shown) [Trolox]
Corrected RFU (thymidine dimers), mean ± standard deviation: 4.380 ± 393.00 RFU

Reference: patent US11141374B2, “Natural skin care compositions and methods for treating oxidative stress and restoring skin health” (CODEX BEAUTY CORPORATION, priority 2019, dated 2021)
